Source: publication PMC9977294, “A parasitic fungus employs mutated eIF4A to survive on rocaglate-synthesizing Aglaia plants” (eLife, 2023)
Where “and” joins values, the source holds several entries; their conditions need not be identical. Equal entries are not always repeated.

Key:
[1] = tested on: C. orbiculare eIF4A^His153Gly; assay: In planta fungal biomass on cucumber cotyledons (RT-qPCR); assay type: in vivo, Colletotrichum orbiculare; conditions: cucumber leaves; 1 µM aglafoline; 3 dpi; Figure 4B
Protocol: (§1) Fungal inoculation was performed as previously described ([Hiruma and Saijo, 2016]; [Kumakura et al., 2019]) with modifications. Cucumber cotyledons were used for C. orbiculare inoculation. Seeds of cucumber, Cucumis sativus Suyo strain (Sakata Seed Corp.), were planted on a mix of equal amounts of vermiculite (VS Kakou) and Supermix A (Sakata Seed Corp.). Cucumbers were grown at 24°C under a 10 hr light/14 hr dark cycle using biotrons (NK Systems). Cotyledons were detached from seedlings of cucumbers and inoculated with C. orbiculare at 13 days post-germination. C. orbiculare strains (eIF4A^WT#1 and eIF4A^H153G#1, Supplementary file 4) were cultured on 100 ml of 3.9% PDA in a 300 ml flask at 25°C for 6 days in the dark. Conidia that appeared on the surface of PDA were suspended in 20 ml of sterilized water, filtered through cell strainers (100 µm pore size, Corning), pelleted by centrifugation at 760 × g for 5 min, and resuspended in sterilized water. The concentration of conidia was measured with disposable hemacytometers (Funakoshi) and adjusted to 10^5 conidia/ml with or without aglafoline (1 µM). […]
(§2) Relative expression levels of the C. orbiculare 60S ribosomal protein L5 gene (GenBank: Cob_v012718) ([Gan et al., 2013]) normalized to that of a cucumber cyclophilin gene (GenBank: AY942800.1) ([Liang et al., 2018]) were determined. […]

C. orbiculare eIF4A^WT = assay: as above; assay type: in vivo, Colletotrichum orbiculare
Protocol: as §1, with “Conidia that appeared on the surface of PDA were suspended in 20 ml of sterilized water, filtered through cell strainers (100 µm pore size, Corning), pelleted by centrifugation at 760 × g for 5 min, and resuspended in sterilized water.” left out
as §2, with “The living fungal biomass in cucumber leaves at 3.5 days postinoculation (dpi) was measured by RT-qPCR. Relative” for “Relative”

H. sapiens eIF4A1 WT = biological target: T1, H. sapiens eIF4A1 WT (Homo sapiens, UniProt P60842); assay: In vitro translation assay in reconstituted system with human factors; assay type: biochemical; conditions: for translation of reporter mRNA, Mean / translation of reporter mRNA, replicates: CAA repeats reporter, value at 0 μM RocA = 1
T1 construct: His tag (N); made in house; host or cells: E. coli BL21 Star (DE3)
T1 sequence (P60842 whole entry): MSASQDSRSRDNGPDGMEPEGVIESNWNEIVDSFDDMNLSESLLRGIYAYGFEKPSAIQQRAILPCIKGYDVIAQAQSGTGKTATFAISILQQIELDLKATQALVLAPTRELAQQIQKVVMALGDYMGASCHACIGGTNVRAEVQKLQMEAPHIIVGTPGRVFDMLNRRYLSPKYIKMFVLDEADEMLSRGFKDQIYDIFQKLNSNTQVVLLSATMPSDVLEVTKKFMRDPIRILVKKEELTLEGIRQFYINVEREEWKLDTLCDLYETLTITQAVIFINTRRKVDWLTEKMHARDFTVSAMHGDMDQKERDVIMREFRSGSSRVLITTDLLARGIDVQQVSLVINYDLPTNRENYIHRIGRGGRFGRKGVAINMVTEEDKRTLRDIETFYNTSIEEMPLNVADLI
Text: (§3) The DNA fragments PCR-amplified from psiCHECK2−7×AGAGAG motifs or psiCHECK2-CAA repeats ([Iwasaki et al., 2016]) were used as a template for in vitro transcription with a T7-Scribe Standard RNA IVT Kit ([…]). RNA was capped and poly(A) tailed with a ScriptCap m^7G Capping System, a ScriptCap 2′-O-Methyltransferase Kit, and an A-Plus Poly(A) Polymerase Tailing Kit ([…]).
(§4) The reconstitution system for human translation has been described previously ([Iwasaki et al., 2019]; [Machida et al., 2018]; [Yokoyama et al., 2019]). The in vitro translation reaction and luciferase assay were performed as previously described ([Iwasaki et al., 2019]) with some modifications. The final concentrations of mRNA and the eIF4A protein were 60 ng/µl and 2.16 µM, respectively. The translation mixture was incubated for 2.5 hr. The fluorescence signal was detected using the Renilla-Glo Luciferase Assay System (Promega) and measured in an EnVision 2104 plate reader (PerkinElmer).

[2] = biological target: T2, H. sapiens eIF4A1 Phe163Gly (Homo sapiens, UniProt P60842, F163G); assay: as above; assay type: biochemical; conditions: for translation of reporter mRNA, Mean / translation of reporter mRNA, replicates: CAA repeats reporter, value at 0 μM RocA = 1
T2 construct: His tag (N); made in house; host or cells: E. coli BL21 Star (DE3)
T2 sequence (P60842 whole entry F163G): as the sequence (P60842 whole entry) above, with F163G counted along it
Text: as §3, §4

SMILES | in planta fungal biomass [1] | in planta fungal biomass (C. orbiculare eIF4A^WT; cucumber leaves, 1 µM aglafoline, 3 dpi, Figure 4B) | In planta fungal biomass (Figure 4B source data), single replicates (C. orbiculare eIF4A^WT; eIF4AWT, aglafoline +, Replicate 1-8) | translation of reporter mRNA, Mean (H. sapiens eIF4A1 WT; RocA 0.1 μM) | translation of reporter mRNA, replicates (H. sapiens eIF4A1 WT; RocA 0.1 μM) | translation of reporter mRNA, Mean (H. sapiens eIF4A1 WT; RocA 1 μM) | translation of reporter mRNA, replicates (H. sapiens eIF4A1 WT; RocA 1 μM) | translation of reporter mRNA, Mean (H. sapiens eIF4A1 WT; RocA 10 μM) | translation of reporter mRNA, replicates (H. sapiens eIF4A1 WT; RocA 10 μM) | translation of reporter mRNA (H. sapiens eIF4A1 WT; polypurine motif-possessing reporter mRNA, Figure 3A) | translation of reporter mRNA, Mean ([2]; RocA 0.1 μM) | translation of reporter mRNA, replicates ([2]; RocA 0.1 μM) | translation of reporter mRNA, Mean ([2]; RocA 1 μM) | translation of reporter mRNA, replicates ([2]; RocA 1 μM) | translation of reporter mRNA, Mean ([2]; RocA 10 μM) | translation of reporter mRNA, replicates ([2]; RocA 10 μM) | translation of reporter mRNA ([2]; polypurine motif reporter mRNA, Figure 3A)
COC(=O)[C@H]1[C@@H](O)[C@@]2(O)c3c(OC)cc(OC)cc3O[C@@]2(c2ccc(OC)cc2)[C@@H]1c1ccccc1 [Aglafoline, methyl rocaglate] | resulted in rocaglate resistance in the fungi | reduced the biomass of the WT eIF4A-recombined strain on cucumber leaves | 0.01241 and 0.4556 and 0.03831 and 0.01038 and 0.09347 and 0.5781 and 0.1819 and 0.09019 |  |  |  |  |  |  |  |  |  |  |  |  |  | 
COc1ccc([C@@]23Oc4cc(OC)cc(OC)c4[C@]2(O)[C@H](O)[C@H](C(=O)N(C)C)[C@H]3c2ccccc2)cc1 [RocA, rocaglamide A] |  |  |  | 1.2394 | 0.9075 and 1.715 and 1.095 | 1.148 | 0.7715 and 1.702 and 0.9709 | 1.012 | 0.7743 and 1.31 and 0.9501 | translation reduction from polypurine motif-possessing reporter mRNA | 1.06 | 0.8871 and 1.301 and 0.9923 | 1.42 | 0.8083 and 2.551 and 0.9008 | 0.918 | 0.6256 and 1.131 and 0.9971 | prevented the translation repression mediated by RocA
